From patent US11458083B2, “Cosmetic and/or dermatological composition containing a merocyanine derivative comprising specific polar groups consisting of hydroxyl- and ether-functionalities” (L'OREAL, priority 2011, dated 2022)

What was measured:
Type in all cases: physicochemical
[1] = Photostability of the UV filters in a formula film exposed to a solar simulator (HPLC); conditions: film about 20 μm, UVA dose 42 J/cm^2
From the text: The percentage of residual amount of each UV filter (merocyanine compound and dibenzoylmethane compound) caused by the exposure to a solar simulator of a formula spread in a film having a thickness of about 20 μm was measure. The evaluation was done by HPLC analysis of each UV filter in a solution after extraction of the film, by comparing exposed and non-exposed samples. Solar simulator: Apparatus Oriel […] equipped with a 4 pouces outlet, a 81017 filter and a dichroic mirror. The samples were exposed in horizontal position. The UV exposure was characterized by: • a UVB flux of 0.35-0.45 mW/cm^2 • a UVA flux 16-18 mW/cm^2. Each residual amount of each UV filter was measured by HPLC chromatography with a sensor having diodes bars. About 20 mg of the composition are spread on the surface of a rough melt silica disc. 3 films of composition were exposed to the solar simulator and 3 other films were used as control. The samples were exposed 3 per 3 to the light of the simulator during a sufficient time delivering an UVA dose of 42 J/cm^2. At the end of the exposure, the disc was introduced in a bowl of 600 ml with 10 ml of appropriate solvent (ie generally ethanol). The disc and the bowl were then placed during 5 minutes in an ultrasonic tank.

[2] = UV shielding properties: UV spectra in ethanol; set-up: Absorption maximum λmax: unit not given here; conditions: UV spectrum in ethanol
From the text: The UV shielding properties of the merocyanine derivatives are investigated by measuring their UV spectra in ethanol. In the following table the investigated absorption maxima (Amax) together with the corresponding A^1%1cm values are listed.

[3] = Storage (chemical) stability in water/ethanol solution, UPLC; conditions: 0.5% in water/ethanol 1/1, 45° C.
Method: The chemical stability of the compounds can be assessed in a water/ethanol solution 1/1 with compounds solubilized at 0.5%.
(§1) Once the solution prepared, it is placed in an oven at 45° C. for 2 months for stability and 1 h at 60° C. for acidic stress. Then the solution is aliquoted (0.005% w/v in H2O/ACN 50/50) for liquid chromatography analysis to check disappearance or not.
(§2) UPLC Acquity (Waters) with diod array detector eλ (Waters).
(§3) Column: Acquity HSS T3 (Waters), length: 50 mm, Inner diameter: 2.1 mm, particles diameter 1.8 μm. Mobile phase A=ammonium acetate 20 mM, B=Acetonitrile.
(§4) • Flow rate: 0.5 mL/min • T: 20° C. • Detection at UV 383 nm

[4] = Acid media stability (HCl 0.1M), UPLC; conditions: HCl 0.1M in water/ethanol/isopropanol 50/40/10 (v/v/v), 1 h at 60° C.
Method: These solutions could be acidified to check also stability toward acid media for example HCl 0.1M in a water/ethanol/isopropanol 50/40/10 (v/v/v).
as §1, §2, §3, §4

| SMILES | % of residual Avobenzone after UV exposure ([1]; in composition Example 9 (with 1% merocyanine compound 4)) | A^1%1 cm at absorption maximum [2] | Absorption maximum λmax [2] | % of residual merocyanine compound 4 after UV exposure ([1]; in composition Example 9 (with 2% avobenzone)) | Storage stability 2 months 45° C. [3] | Acid media stability 1 h 60° C. (loss) [4] |
| --- | --- | --- | --- | --- | --- | --- |
| COc1ccc(C(=O)CC(=O)c2ccc(C(C)(C)C)cc2)cc1 [Avobenzone, 4-(tert-butyl)-4′-methoxydibenzoylmethane, reference compound] | 91% | – | – | – | – | – |
| CCOC(=O)/C(C#N)=C/C=C/N(CCOC)CCOC [Compound 1] | – | 2283 | 380 | – | – | – |
| COCCOC(=O)/C(C#N)=C/C=C/N(CCOC)CCOC [Compound 2] | – | 2046 | 380 | – | – | – |
| CCOCCOC(=O)/C(C#N)=C/C=C/N(CCOC)CCOC [Compound 3] | – | 1965 | 380 | – | – | – |
| CCOCCOC(=O)/C(C#N)=C/C=C/N1CCCCC1 [Compound 4] | – | 2568 | 381 | 85% | – | – |
| COCCOCCOC(=O)/C(C#N)=C/C=C/N1CCCCC1 [Compound 5] | – | 2252 | 381 | – | – | – |
| N#C/C(=C\C=C\N1CCCCC1)C(=O)NCCO [Compound 6] | – | 2530 | 380 | – | – | – |
| N#C/C(=C\C=C\N1CCCCC1)C(=O)OCC(O)CO (centres unmarked) [Compound 7] | – | 2467 | 381 | – | – | – |
| N#C/C(=C\C=C\N1CCOCC1)C(=O)OCC(O)CO (centres unmarked) [Compound 9] | – | 2414 | 380 | – | – | – |
| CCCCOC(=O)/C(C#N)=C/C=C/N(CCO)CCCC [Compound 12] | – | 2235 | 381 | – | – | – |

Other lines, results leading:

| % of residual Avobenzone after UV exposure ([1]; in composition Example 9 (with 1% merocyanine compound 4)) | A^1%1 cm at absorption maximum [2] | Absorption maximum λmax [2] | % of residual merocyanine compound 4 after UV exposure ([1]; in composition Example 9 (with 2% avobenzone)) | Storage stability 2 months 45° C. [3] | Acid media stability 1 h 60° C. (loss) [4] | SMILES |
| --- | --- | --- | --- | --- | --- | --- |
| – | 2207 | 385 | – | – | – | CCOC(=O)/C(C#N)=C1\C=C(NCCCOC)CCC1 [Compound 14] |
| – | 1644 | 385 | – | No loss | Loss 100% | COCCCNC(=O)/C(C#N)=C1\C=C(NCCCOC)CCC1 [Compound 15] |
| – | 1618 | 386 | – | – | – | CCCCC(CC)CNC1=C/C(=C(/C#N)C(=O)NCCO)CCC1 (centres unmarked) [Compound 16] |
| – | 2083 | 385 | – | – | – | CC(C)COC(=O)/C(C#N)=C1\C=C(NCC(C)O)CCC1 (centres unmarked) [Compound 17] |
| – | 2036 | 385 | – | – | – | CCCCCCCCOC(=O)/C(C#N)=C/C=C/N(CC)CCO [Compound 18] |
| – | 2230 | 381 | – | – | – | CCCN(/C=C/C=C(\C#N)C(=O)OCC(O)CO)CCC (centres unmarked) [Compound 23] |
| – | 1947 | 385 | – | No loss | Loss 4% | CCOCCOC(=O)/C(C#N)=C1\C=C(NCCCOC)CCC1 [Compound 25, 2-ethoxyethyl (2Z)-cyano{3-[(3-methoxypropyl)amino]cyclohex-2-en-1-ylidene}ethanoate] |
